Measured values reported in paper PMC6429710, “Structure–activity relationships in a series of antiplasmodial thieno[2,3-b]pyridines” (Malaria Journal, 2019).

What was measured:
[1] = system: asexual erythrocytic stages of transgenic NF54-luc P. falciparum; test: Luciferase-based viability screening for antiplasmodial activity; format: cell-based, Plasmodium falciparum; conditions: 48 h
Description: For the luciferase-based viability assays, asexual erythrocytic stages of transgenic NF54-luc P. falciparum were used. These parasites constitutively express high luciferase levels. The parasites were cultured as described previously. Parasite cultures with parasitaemia of 0.5–1% were dispensed in triplicate into white 96-well flat-bottom plates (each well contains 250 µL) (NUNC, Roskilde, Denmark) and incubated in the presence of 3 µM test compounds for 48 h (37 °C, 90% N2, 5% CO2, and 5% O2). 0.01% DMSO was included in the untreated infected RBC cultures as negative control, since the compounds stock initially was diluted in DMSO and each treatment well also contained 0.01% DMSO. Subsequently, 100 µL RPMI1640 media was removed from each well and a 100 µL volume of the Bright-Glo® substrate solution was added to each well. The resultant cleavage product of the reaction, light, was measured using a […] luminometer (Thermo), to ascertain viable parasites. Untreated cultures were used as negative controls and to calculate the inhibition rate (0% inhibition of parasite growth). Experiments were performed in triplicate and were repeated as a whole at least twice. Blasticidin (Sigma-Aldrich, St. Louis, MO, USA), used for selection of transfected parasites, was included as a positive control on each plate and gave > 90% inhibition of parasite growth at concentration 2 µg/mL. […] For active compounds IC50 values were determined from dose–response curves. Calculation of parasite growth inhibition, of the IC50 values and statistical analysis were carried out using GraphPad Prism Version 6.0b (GraphPad Software, Inc. San Diego, CA).

HEK293T cells = test: Cytotoxicity assay on HEK293 cells (PrestoBlue viability); format: cell-based, human; conditions: cell viability, 48 h; mean of six determinations, range in brackets; read-out: IC50 [µM], HEK 293T
Description: HEK293T cells were seeded into a solid black flat bottom 96 well plate (2.5 × 10^4 cells/well) in 200 μL Dulbecco Modified Eagle Medium (DMEM) supplemented with 10% fetal bovine serum and 1% Pen/Strep (final concentration of 100 U/mL Penicillin and 100 μg/mL Streptomycin). Cells were incubated at 37 °C under 5% CO2. After 18 h the supernatant was removed and fresh DMEM containing serial dilutions of compounds was added. Compounds were solubilized in DMSO (final DMSO concentration in HEK293T culture was 0.5%.) Wells containing 0.5% DMSO served as a negative control. Plates were incubated for further 48 h at 37 °C under 5% CO2. To monitor cell viability the supernatant was removed and cells were incubated with 200 μL 10% PrestoBlue (Invitrogen) in PBS at 37 °C. After 30 min fluorescence (λex = 560 nm, λem = 590 nm) was measured in an EnVision multilable plate reader (Perkin Elmer, integration time 0.1 s/well). Data points were plotted into Graphpad Prism, normalized to the DMSO control and IC50 values were calculated using nonlinear regression.

## CN(C)CCN(C)c1ccc(-c2c(C#N)c(N)nc3sc(C(=O)c4cccc(Cl)c4)c(N)c23)c(Cl)c1 [4h]
[1]; 3 µM test compound, luciferase readout, ± SD
  % inhibition ± SD, PfNF54-Luc at 3 µM: 99.9 ± 0.1%
[1]; from dose-response curves, read-out: IC50 [µM], PfNF54-Luc
  IC50: 1.2 µM
HEK293T cells
  IC50: 5.56 µM
